Data taken from US8871786B2, “Azaindazole amide compounds as CCR1 receptor antagonists” (Boehringer Ingelheim International GmbH, priority 2010, dated 2014).

target: T1, CCR1 (Homo sapiens, UniProt P32246); assay: Calcium flux assay in CCR1 transfected cells (block of CCR1/MIP-1α interaction); assay type: cell-based; settings: cells stably expressing recombinant CCR1 and G-alpha-16; MIP-1 alpha at EC80; mean
T1 sequence (P32246 1-355): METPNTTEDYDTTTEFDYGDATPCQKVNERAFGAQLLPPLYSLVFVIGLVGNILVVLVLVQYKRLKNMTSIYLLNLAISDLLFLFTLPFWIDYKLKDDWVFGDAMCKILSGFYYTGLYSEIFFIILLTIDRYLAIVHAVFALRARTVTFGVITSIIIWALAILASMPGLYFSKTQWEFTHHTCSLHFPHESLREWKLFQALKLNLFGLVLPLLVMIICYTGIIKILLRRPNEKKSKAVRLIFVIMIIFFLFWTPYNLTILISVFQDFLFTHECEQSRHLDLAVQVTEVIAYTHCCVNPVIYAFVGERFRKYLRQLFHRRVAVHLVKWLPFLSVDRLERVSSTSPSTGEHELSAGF
Procedure: Compounds are assessed for the ability to block the interaction of CCR1 and MIP-1α in a functional cellular assay measuring calcium flux in CCR1 transfected cells.
Non-adherent cells purchased from Chemicon Corporation (HTS005C), stably expressing recombinant CCR1 and G-alpha-16 are grown in RPMI 1640 medium (Mediatech 10-080-CM) supplemented with 10% FBS, 0.4 mg/mL Geneticin and penicillin/streptomycin. On the day of the assay, the cells are loaded with Calcium 4 dye (Molecular Devices R7448) with Probenecid (Invitrogen P346400) at 8E5 cells/mL for 1 hour at room temperature. After 1 hour, they are seeded in a 384-well tissue culture-treated plate at a density of 20,000 cells/well. Appropriately diluted test compound is added to the well to achieve a top concentration of 3,000 nM (diluted 4-fold with 10 doses total). The final concentration of DMSO is 1%. The buffer is HBSS (Invitrogen 14025) with 20 mM HEPES at pH 7.4. The cells incubate 30 minutes at 37 C and then 30 minutes at room temperature. The plates are transferred to the HAMAMATSU FDSS6000 where MIP-1 alpha in 1% BSA is added at the EC80 final concentration. All plates must be read within 4 hours of the start of dye-loading. Wells+/−MIP-1 alpha containing diluted DMSO instead of compound serve as the controls. Data are analyzed using Activity Base software.

IC50 [nM]	SMILES
73	Cn1nccc1-c1cccc(NC(=O)c2cncc3c2cnn3-c2ccc(F)cc2)c1
84	Cn1ncc(-c2ccccc2)c1NC(=O)c1cncc2c1cnn2-c1ccc(F)cc1
2.1	Cc1cc(C)c(S(C)(=O)=O)cc1NC(=O)c1cncc2c1cnn2-c1ccc(F)cc1
2.8	Cc1cc(Cl)cc(C)c1NC(=O)c1cncc2c1cnn2-c1ccc(F)cc1
21	Cc1ccnc(C)c1NC(=O)c1cncc2c1cnn2-c1ccc(F)cc1
36	Cc1cccc(Cl)c1NC(=O)c1cncc2c1cnn2-c1ccc(F)cc1
24	COC(=O)c1ccc(NC(=O)c2cncc3c2cnn3-c2ccc(F)cc2)c(C)c1
82	Cc1ccc(NC(=O)c2cncc3c2cnn3-c2ccc(F)cc2)c(Cl)n1
6.9	Cc1noc(C)c1NC(=O)c1cncc2c1cnn2-c1ccc(F)cc1
66	Cc1cc(C(=O)N(C)C)ccc1NC(=O)c1cncc2c1cnn2-c1ccc(F)cc1
30	Cc1cc(-c2nnco2)ccc1NC(=O)c1cncc2c1cnn2-c1ccc(F)cc1
14	Cc1onc(-c2ccccc2)c1NC(=O)c1cncc2c1cnn2-c1ccc(F)cc1
8.8	Cc1nc(Cl)ccc1NC(=O)c1cncc2c1cnn2-c1ccc(F)cc1
19	Cc1cc(C)c(NC(=O)c2cncc3c2cnn3-c2ccc(F)cc2)c(C)c1
93	CNC(=O)c1ccc(NC(=O)c2cncc3c2cnn3-c2ccc(F)cc2)c(C)c1
